Source: US20210093637A1, “TOPICAL OINTMENT FORMULATIONS OF PDE-4 INHIBITOR AND THEIR USE IN TREATING SKIN CONDITIONS” (Dermavant Sciences GmbH, priority 2017, published 2021)
Where “and” joins values, the source holds several entries; their conditions need not be identical. Identical values can stand only once.

Legend:
[1] = Phase 2 study RVT-501-2001, plasma concentrations of RVT-501 and M11; format: in vivo, human
Source text: During the treatment period, subjects applied RVT-501 ointment or vehicle to affected areas twice daily (BID) for 28 days. Subjects returned to the clinic at Day 4 for evaluation, and again at Weeks 1, 2, 3, and 4 for safety and efficacy assessments. Pharmacokinetic samples were collected at Weeks 1 and 4. On clinic visit days (except on the Day 4 visit), subjects applied study drug on-site while under the supervision of site personnel, after efficacy assessments had been completed.
Statistical Methods: Efficacy Analyses: A sample size and power sensitivity analysis was conducted for the efficacy endpoints. Assuming an effect size (defined as difference of mean change from baseline EASI score between treatment groups relative to pooled standard deviation) of 0.7, a sample size of 50 subjects in an active arm and 50 subjects in the combined placebo will provide 93% power at an alpha level of 0.05 (2-sided), based on a 2-sided t-test. The sample size will also allow a difference of 33% between placebo and active treatment in a responder endpoint to be detected with 90% power and a 0.05 significance level assuming the proportion of responders in the placebo group is <=20%. Efficacy endpoints will be summarized and listed by treatment for each age group and both age groups combined; The between-treatment comparisons (active vs placebo and between active dose groups) for continuous efficacy variables will be performed using an analysis of covariance (ANCOVA) model. The between treatment comparisons for the proportion of responders will be compared using a CMH or Chi-square test. Safety Analyses: Adverse events will be mapped to a Medical Dictionary for Regulatory Activities (MedDRA). Treatment emergent adverse events will be summarized by treatment, preferred term and system organ classification. Descriptive summaries of vital signs, ECG parameters, and clinical laboratory results will be presented by study visit and treatment group. Pharmacokinetic Analyses: RVT-501 and M11 plasma concentrations will be listed by subject, treatment, and time; and will be summarized by treatment and time. The number and percent of subjects with a measurable concentration of either analyte at each time point and any time during the study will be provided.
Analysis Populations: Four analysis populations were used for this study. The Safety population, consisting of all subjects enrolled into the study who received study drug, was used for the safety analyses. The intent-to-treat (ITT) population, defined as all subjects randomized to treatment, was the primary population used for the efficacy analyses. The per protocol (PP) population included subjects who applied at least 50% of the doses. The PP population was used for confirmatory analysis of the efficacy variables. The PK population included all subjects who underwent plasma PK sampling and had at least one evaluable PK sample (a concentration reported as below the lower limit of quantitation (LLQ) of the assay was considered an evaluable PK sample).
Pharmacokinetics: Blood samples for PK analysis of RVT-501 and the M11 metabolite will be collected at the time points indicated in Table 1. The actual date and time of each blood sample collection will be recorded as well as the date and time of the last dose of study mediation. The timing of PK samples may be altered and/or PK samples may be obtained at additional time points to ensure thorough PK monitoring.
Pharmacokinetics summary: PK samples were collected pre-dose at Weeks 1 and 4, and 2-4 hrs post-dose at Week 4. […] Three patients had detectable M11 exposure with the highest value at 1.60 ng/mL.

[2] = Open-label Phase 1b study in pediatric patients (Example 7), plasma concentrations of RVT-501 and M11; format: in vivo, human; conditions: for subjects with measurable concentrations in plasma at one or more time points: PK Set n=25, LLOQ 0.25 ng/mL
Source text: During the Treatment Phase, subjects, their parent(s), or caregiver applied RVT-501 0.5% ointment to affected areas twice daily for 28 days. Subjects returned to the clinic at Week 1, Week 4, and follow-up for study assessments. On Day 1 and Weeks 2 and 3, subjects were contacted by phone to confirm their status, including any adverse events (AEs) and changes in concomitant medications.
Primary Endpoints: Frequency and severity of AE (local and systemic), Laboratory values, Vital signs, Plasma concentrations of RVT-501 and M11 metabolite.
Analysis Populations: All subjects enrolled in the study who had at least one application of study drug were included in the Safety Set. This was the population for the safety and efficacy analyses. The PK Set included all subjects who underwent plasma PK sampling and had evaluable PK assay results.
Pharmacokinetic Analyses: RVT-501 and M11 were measured in plasma by a validated assay. The number and percent of subjects with measurable concentration at each time point and at any time during the study were summarized. RVT-501 and M11 concentrations were summarized descriptively at each collection time point.

[3] = Blood-to-plasma partition (B/P); format: in vitro ADME, human; conditions: for average B/P of two levels: 3 and 160 ng/mL; for blood plasma ratio at 3 ng/mL / blood plasma ratio at 160 ng/mL: human, whole blood and plasma prepared from it
Protocol: Blood-to-plasma partition and shelf-life of refrigerated blood: The blood-to-plasma partition (B/P) of E6005 and M11 was determined by assaying concentrations of E6005 and M11 in whole blood samples and plasma samples prepared from blood samples by centrifugation. […] The average B/P of two levels was 0.679 for E6005 and 0.584 for M11.

[4] = Clinical application of DBS assay: blood levels in pediatric trial of E6005 ointment; format: in vivo, human; conditions: pediatric subjects; E6005 ointment 0.05% or 0.2% twice a day for two weeks; 147 DBS samples
Protocol: Clinical application: A clinical study was performed in which E6005 ointment containing 0.05% or 0.2% was topically applied twice a day for two weeks to pediatric subjects. Blood samples were obtained at 1- and 2-week post-dose as well as subsequent 7-day follow-up period in collection tubes with K2-EDTA as an anticoagulant, thereafter put on ice as soon as possible to reduce possible conversion of E6005 to M11. Details on sample handling at the clinics were clarified in a lab manual; a 25 μL aliquot blood sample was spotted onto the center of circle of DBS cards (four replicates per sample) at clinics, then dried at room temperature for at least 2 h. DBS cards with desiccants were placed in zip lock bags and stored frozen below −20° C. until shipment to a bioanalytical laboratory. Samples were stored below −15° C. at the laboratory until they were subjected to sample processing for the determination of E6005 and M11 concentrations in DBS.

[5] = Week 1 Hour 3, RVT-501 0.5% (N = 25)
[6] = Week 1 Hour 7, RVT-501 0.5% (N = 25)
[7] = Week 1 Pre-Dose, RVT-501 0.5% (N = 25)
[8] = Week 4 Pre-Dose, RVT-501 0.5%, N 23

| subjects with measurable concentrations in plasma at one or more time points [2] | Number of subjects with measurable concentrations, (%) [2, 5] | Plasma concentration, Max [2, 5] | Plasma concentration, Mean [2, 5] | Plasma concentration, Median [2, 5] | Plasma concentration, Min [2, 5] | Number of subjects with measurable concentrations, (%) [2, 6] | Plasma concentration, Max [2, 6] | Plasma concentration, Mean [2, 6] | Plasma concentration, Median [2, 6] | Plasma concentration, Min [2, 6] | Number of subjects with measurable concentrations, (%) [2, 7] | Plasma concentration, Max [2, 7] | Plasma concentration, Mean [2, 7] | Plasma concentration, Median [2, 7] | Plasma concentration, Min [2, 7] | Number of subjects with measurable concentrations, (%) [2, 8] | Plasma concentration, Max [2, 8] | Plasma concentration, Mean [2, 8] | Plasma concentration, Median [2, 8] | further results | Structure (SMILES) |
| --- | --- | --- | --- | --- | --- | --- | --- | --- | --- | --- | --- | --- | --- | --- | --- | --- | --- | --- | --- | --- | --- |
| 40% | (24.0) % | 1860.00 ng/mL | 102.92 ng/mL | 0.0 ng/mL | 0 ng/mL | (32.0) % | 1470.00 ng/mL | 62.16 ng/mL | 0.0 ng/mL | 0 ng/mL | (24.0) % | 147.00 ng/mL | 6.00 ng/mL | 0.0 ng/mL | 0 ng/mL | (13.0) % | 0.45 ng/mL | 0.05 ng/mL | 0.0 ng/mL | highest plasma concentration of RVT-501 ([1]; RVT-501 0.2% group, Week 4): 1.23 ng/mL; plasma RVT-501 concentration, Subject 18014 (adolescent) ([1]; RVT-501 0.2% group, Week 4, 2 hours post-dose): 1.20 ng/mL; plasma RVT-501 concentration, Subject 18014 (adolescent) ([1]; RVT-501 0.2% group, Week 4 pre-dose): 1.23 ng/mL; plasma concentration of RVT-501 ([1]; Week 1 pre-dose, all treatment groups, LLQ): < 1.00 ng/mL; systemic absorption ([1]; topical 0.2% and 0.5% BID): minimal to no systemic absorption; mean plasma concentration of RVT-501 ([2]; Week 1, 3 hours post-dose): 102.92 ng/mL; plasma level of RVT-501, Subject 03002 ([2]; Week 1, 3 hours post-dose): 710.0 ng/mL; mean plasma concentration of RVT-501 ([2]; Week 1, 7 hours post-dose): 62.16 ng/mL; plasma level of RVT-501, Subject 03001 ([2]; Week 1, 7 hours post-dose): 80.3 ng/mL; mean plasma concentration of RVT-501 ([2]; Week 1 pre-dose): 6.00 ng/mL; plasma level of RVT-501, Subject 03007 ([2]; Week 1 pre-dose): 147.0 ng/mL; subjects with concentrations of RVT-501 ≥80 ng/ml ([2]; Week 1 visit): 16%; Plasma concentration, Min [2, 8]: 0 ng/mL; highest plasma concentration of RVT-501 ([2]; human, in vivo): 1 860 ng/mL; average B/P of two levels [3]: 0.679; blood plasma ratio at 3 ng/mL [3]: 0.69; blood plasma ratio at 160 ng/mL [3]: 0.669; maximum level in blood (DBS) [4]: 1.65 ng/mL | CNc1nc(-c2cccc(NC(=O)c3ccc(C(=O)OC)cc3)c2)c2cc(OC)c(OC)cc2n1 [RVT-501, methyl N-[3-(6,7-dimethoxy-2-methylaminoquinazolin-4-yl)phenyl]terephthalamic acid] |
| 40% | (28.0) % | 8.58 ng/mL | 0.61 ng/mL | 0.0 ng/mL | 0 ng/mL | (28.0) % | 23.40 ng/mL | 1.24 ng/mL | 0.0 ng/mL | 0 ng/mL | (24.0) % | 7.64 ng/mL | 0.57 ng/mL | 0.0 ng/mL | 0 ng/mL | (17.4) % | 1.07 ng/mL | 0.12 ng/mL | 0.0 ng/mL | plasma M11 concentration, Subject 18014 (adolescent) ([1]; RVT-501 0.2% group, Week 1 pre-dose): 1.27 ng/mL; plasma M11 concentration, Subject 03005 (adult) ([1]; RVT-501 0.5% group, Week 1 pre-dose): 1.60 ng/mL; plasma M11 concentration, Subject 09003 (adult) ([1]; RVT-501 0.5% group, Week 4 pre-dose): 1.09 ng/mL; highest plasma concentration of M11 metabolite ([1]; all groups, Weeks 1 and 4): 1.60 ng/mL; highest plasma concentration of M11 (Subject 03007) ([2]; Week 1, 7 hours post-dose): 23.4 ng/mL and 23.40 ng/mL; mean plasma concentration of the M11 metabolite ([2]; Week 1, 7 hours post-dose): 1.24 ng/mL; Plasma concentration, Min [2, 8]: 0 ng/mL; mean plasma concentration of the M11 metabolite ([2]; all time points except 7 hours post-dose at Week 1): below 1 ng/ml; average B/P of two levels [3]: 0.584; blood plasma ratio at 3 ng/mL [3]: 0.594; blood plasma ratio at 160 ng/mL [3]: 0.574; maximum level in blood (DBS) [4]: below the LLOQ | CNc1nc(-c2cccc(NC(=O)c3ccc(C(=O)O)cc3)c2)c2cc(OC)c(OC)cc2n1 [Formulation M11, 4-((3-(6,7-dimethoxy-2-(methylamino)quinazolin-4-yl)phenyl)carbamoyl)benzoic acid] |
